From ChEMBL document CHEMBL1131735, “Structure-activity relationships of substituted 5H-thiazolo[3,2-a]pyrimidines as group 2 metabotropic glutamate receptor antagonists” (Bioorg Med Chem Lett, 1999)

What follows are molecules tested against Metabotropic glutamate receptor 2 (Rattus norvegicus, UniProt P31421) (assay: Inhibition of 1S,3R-ACPD (10 uM) -stimulated GTP gamma 35S binding on rat Metabotropic glutamate receptor 2 transfected in CHO cells).
Type: cell-based

Metabotropic glutamate receptor 2, sequence (P31421 whole entry): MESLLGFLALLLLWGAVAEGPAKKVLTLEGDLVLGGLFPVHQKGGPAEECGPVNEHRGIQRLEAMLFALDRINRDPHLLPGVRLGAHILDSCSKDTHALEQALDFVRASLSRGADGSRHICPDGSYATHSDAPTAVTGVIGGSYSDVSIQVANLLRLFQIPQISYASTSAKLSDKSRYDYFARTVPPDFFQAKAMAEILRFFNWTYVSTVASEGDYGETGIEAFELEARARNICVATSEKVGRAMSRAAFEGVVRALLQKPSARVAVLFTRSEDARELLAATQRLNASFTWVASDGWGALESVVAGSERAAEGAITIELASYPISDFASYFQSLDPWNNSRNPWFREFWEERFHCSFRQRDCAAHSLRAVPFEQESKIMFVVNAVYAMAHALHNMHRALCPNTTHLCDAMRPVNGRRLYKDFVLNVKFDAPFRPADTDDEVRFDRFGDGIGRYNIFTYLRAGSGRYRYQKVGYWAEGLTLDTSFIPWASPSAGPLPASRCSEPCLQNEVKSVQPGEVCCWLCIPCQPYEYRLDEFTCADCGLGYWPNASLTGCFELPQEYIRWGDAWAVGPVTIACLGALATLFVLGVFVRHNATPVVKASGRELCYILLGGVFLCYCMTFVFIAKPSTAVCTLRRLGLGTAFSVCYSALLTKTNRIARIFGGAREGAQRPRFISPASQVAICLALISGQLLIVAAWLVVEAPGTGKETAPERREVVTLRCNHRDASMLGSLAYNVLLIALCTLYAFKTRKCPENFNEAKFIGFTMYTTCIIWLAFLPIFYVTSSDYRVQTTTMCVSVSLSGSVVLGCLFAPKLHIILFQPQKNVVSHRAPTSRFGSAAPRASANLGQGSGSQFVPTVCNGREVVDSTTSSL

| Ki [µM] | Structure (SMILES) |
| --- | --- |
| 1 | COc1ccccc1C1C(C(=O)OCCN(C)C)=C(C)N=C2SC(c3ccc(Cl)cc3Cl)=CN21 (stereo unspecified) |
| 4 | COc1ccccc1C1C(C(=O)OCCN(C)C)=C(C)N=C2SC(c3ccc(Cl)cc3)=CN21 (stereo unspecified) |
| 2 | CC1=C(C(=O)OCCN(C)C)C(c2ccccc2OC(C)C)N2C=C(c3c(Cl)cccc3Cl)SC2=N1 (stereo unspecified) |
| 2 | COc1cccc(C2C(C(=O)OCCN(C)C)=C(C)N=C3SC(c4c(Cl)cccc4Cl)=CN32)c1 (stereo unspecified) |
| 3.2 | CC1=C(C(=O)OCCN(C)C)C(c2ccccc2F)N2C=C(c3c(Cl)cccc3Cl)SC2=N1 (stereo unspecified) |
| 3 | CCOc1ccccc1C1C(C(=O)OCCN(C)C)=C(C)N=C2SC(c3c(Cl)cccc3Cl)=CN21 (stereo unspecified) |
| 8 | CC1=C(C(=O)OCCN(C)C)C(c2ccccc2C)N2C=C(c3c(Cl)cccc3Cl)SC2=N1 (stereo unspecified) |
| 7 | COc1ccc(C2C(C(=O)OCCN(C)C)=C(C)N=C3SC(c4c(Cl)cccc4Cl)=CN32)cc1 (stereo unspecified) |
| 4 | CCOC(=O)C1=C(C)N=C2SC(c3c(Cl)cccc3Cl)=CN2C1c1ccccc1OC (stereo unspecified) |
| 1 | CCC1=C(C(=O)OCCN(C)C)C(c2ccccc2OC)N2C=C(c3c(Cl)cccc3Cl)SC2=N1 (stereo unspecified) |
| 4 | COc1ccccc1C1C(C(=O)OCCN(C)C)=C(C(C)C)N=C2SC(c3c(Cl)cccc3Cl)=CN21 (stereo unspecified) |
| 1.5 | COc1ccccc1C1C(C(=O)OCCN(C)C)=C(C)N=C2SC(c3c(Cl)cccc3Cl)=CN21 (stereo unspecified) |
| 2 | CC1=C(C(=O)OCCN(C)C)C(c2ccccc2Cl)N2C=C(c3c(Cl)cccc3Cl)SC2=N1 (stereo unspecified) |
| > 10 | COc1ccccc1C1C(C(=O)OCCN(C)C)=C(C(=O)c2ccccc2)N=C2SC(c3c(Cl)cccc3Cl)=CN21 (stereo unspecified) |
| 2.4 | COc1ccccc1C1C(C(=O)OCCCN(C)C)=C(C)N=C2SC(c3c(Cl)cccc3Cl)=CN21 (stereo unspecified) |
| > 10 | COc1ccccc1C1C(C(=O)NCCN(C)C)=C(C)N=C2SC(c3c(Cl)cccc3Cl)=CN21 (stereo unspecified) |
